Assays:
[1] = system: SARS-CoV-2 spike protein (SmT1); assay: SARS-CoV-2 Spike-specific IgG ELISA in hamsters; format: in vivo, Syrian Golden hamsters; conditions: 3 μg SmT1 i.m. Day 0 only, serum Day 34 (FIG. 15 lower)
[2] = system: OVA; assay: Anti-OVA antibody ELISA of mouse serum; format: in vivo; conditions: OVA-immunized mice, Day 28; 100 = limit of detection (FIG. 5)
Excerpt: (§1) Serum of mice immunized with OVA antigen alone (None) or formulated with SLA archaeosomes, other adjuvants (Poly(I:C), Resiquimod (R848), CpG, MPLA, QS-21, Pam3CSK4) or SLA in combination with other adjuvants was collected on Day 28 (7 days post 2nd immunization by intramuscular route) and analyzed for antigen-specific IgG antibodies by ELISA. Grouped data is presented as geometric mean titer+95% Confidence Interval (n=10/group).
as §1, with “(none)” for “(None)”, “immunization)” for “immunization by intramuscular route)”, “IgG2c” for “IgG”
The levels of anti-OVA or anti-HBsAg antibodies (Abs) in mouse serum were quantified by ELISA using 96-well high-binding ELISA plates (Thermo Fisher Scientific, Waltham, MA, USA) coated overnight at room temperature (RT) with 100 μL of 10 μg/mL OVA (Sigma-Aldrich, St. Louis, MO, USA) in PBS or 1 μg/mL HBsAg (Fitzgerald Industries International) in 16 mM sodium carbonate/34 mM sodium bicarbonate buffer, pH 9.6 (Sigma-Aldrich). […] Bound IgG Abs were detected spectrophotometrically at 450 nm. […]

Row | Molecule | Anti-spike IgG GMT, prime only regimen [1] | anti-OVA IgG2c titer [2]
1 | CC(C)CCCC(C)CCCC(C)CCCC(C)CCOC[C@@H](CO[C@@H]1O[C@H](CO)[C@@H](O[C@@H]2O[C@H](COS(=O)(=O)O)[C@H](O)[C@H](O)[C@H]2O)[C@H](O)[C@H]1O)OCCC(C)CCCC(C)CCCC(C)CCCC(C)C (stereo partly drawn) [SLA, 6′-sulfate-β-D-Galp-(1,4)-β-D-Glcp-(1,1)-archaeol] | 6,050 | 100
2 | polyinosinic-polycytidylic acid [Poly(I:C), reference compound] | – | 5420

Source: patent US12661397B2, “Adjuvant comprising a glycoarchaeol and an immunostimulant” (priority 2021, dated 2026)
